Measured values from US5210193A, “Piperazine derivatives” (American Cyanamid Company, priority 1990, dated 1993).
Values after ≈ are worked out from the molar mass of the structure shown.

How the values were obtained:
Assay in all cases: in vitro antibacterial MIC, agar plate dilution
Assay type in all cases: cell-based
[1] = test system: Enterobacter aerogenes VGH 84-36; conditions: Klebsiella aerogenes, VGH8436, 18 hours, 35° C., read-out: MIC
Procedure: (§1) The in vitro antimicrobial spectrum of the compounds of ths invention were determined by the agar plate dilution method with Mueller-Hinton agar and an inoculum of each test organism of approximately 10^4 colony forming units delivered by the Steers replicating device. The minimal inhibitory concentration (MIC) in mcg/ml is defined as the lowest concentration of test compound that inhibited visible growth after 18 hours incubation at 35° C. Results are given in Table I, with the test compounds identified by the number of their hereinafter described examples.

[2] = test system: Enterobacter cloacae VGH 84-37; conditions: Enterobacter cloacae, VGH8437, 18 h, 35° C., read-out: MIC
Procedure: as §1

[3] = test system: Escherichia coli ATCC 25922; conditions: Escherichia coli, ATCC25922, 18 h, 35° C., read-out: MIC
Procedure: as §1

[4] = test system: Escherichia coli CMC 84-11; conditions: Escherichia coli, CMC8411, 18 h, 35° C., read-out: MIC
Procedure: as §1

[5] = test system: Klebsiella pneumoniae AD; conditions: Klebsiella pneumoniae, 18 h, 35° C., read-out: MIC
Procedure: as §1

[6] = test system: Klebsiella pneumoniae MOR 84-4; conditions: Klebsiella pneumoniae, MOR844, 18 h, 35° C., read-out: MIC
Procedure: as §1

[7] = test system: Morganella morganii VGH 84-11; conditions: VGH8411, 18 hours, 35° C., read-out: MIC
Procedure: as §1

[8] = test system: Proteus rettgeri CMC 84-41; conditions: Providencia rettgeri, CMC8441, 18 h, 35° C., read-out: MIC
Procedure: as §1

[9] = test system: Pseudomonas aeruginosa VGH 84-4; conditions: Pseudomonas aeruginosa, VGH844, 18 h, 35° C., read-out: MIC
Procedure: as §1

[10] = test system: Staphylococcus aureus ATCC 25913; conditions: ATCC25913, 18 hours, 35° C.
Procedure: as §1

[11] = test system: Staphylococcus aureus Smith; conditions: Staphylococcus aureus, 18 h, 35° C., read-out: MIC
Procedure: as §1

SMILES	MIC [1] [µg/mL]	MIC [2] [µg/mL]	MIC [3] [µg/mL]	MIC [4] [µg/mL]	MIC [5] [µg/mL]	MIC [6] [µg/mL]	MIC [7] [µg/mL]	MIC [8] [µg/mL]	MIC [9] [µg/mL]	MIC [10] [µg/mL]	MIC [11] [µg/mL]
CCn1cc(C(=O)O)c(=O)c2cc(F)c(N3CCN(C)C(c4ccco4)C3)cc21 (centres unmarked) [Example 32, 1-Ethyl-6-fluoro-7-[3-(2-furanyl)-4-methyl-1-piperazinyl]-1,4-dihydro-4-oxo-3-quinolinecarboxylic acid]	4 (≈ 10 µM)	1 (≈ 2.5 µM)	1 (≈ 2.5 µM)	1 (≈ 2.5 µM)	2 (≈ 5.01 µM)	2 (≈ 5.01 µM)	2 (≈ 5.01 µM)	2 (≈ 5.01 µM)	16 (≈ 40.1 µM)	1 (≈ 2.5 µM)	0.25 (≈ 0.626 µM)
CCn1cc(C(=O)O)c(=O)c2cc(F)c(N3CCNC(c4ccc(Cl)s4)C3)cc21 (centres unmarked) [Example 34, 7-[3-(5-Chloro-2-thienyl)-1-piperazinyl]-1-ethyl-6-fluoro-1,4-dihydro-4-oxo-3-quinolinecarboxylic acid]	4 (≈ 9.18 µM)	1 (≈ 2.29 µM)	1 (≈ 2.29 µM)	1 (≈ 2.29 µM)	1 (≈ 2.29 µM)	2 (≈ 4.59 µM)	1 (≈ 2.29 µM)	1 (≈ 2.29 µM)	16 (≈ 36.7 µM)	0.25 (≈ 0.574 µM)	0.25 (≈ 0.574 µM)
CCn1cc(C(=O)O)c(=O)c2cc(F)c(N3CCNC(c4ccc(C)o4)C3)cc21 (centres unmarked) [Example 42, 1-Ethyl-6-fluoro-1,4-dihydro-7-[3-(5-methyl-2-furanyl)-1-piperazinyl]-4-oxo-3-quinolinecarboxylic acid]	0.5 (≈ 1.25 µM)	0.25 (≈ 0.626 µM)	0.25 (≈ 0.626 µM)	≤ 0.12	≤ 0.12	0.25 (≈ 0.626 µM)	0.25 (≈ 0.626 µM)	0.25 (≈ 0.626 µM)	4 (≈ 10 µM)	≤ 0.12	≤ 0.12
CCn1cc(C(=O)O)c(=O)c2cc(F)c(N3CCNC(c4cc(C)cs4)C3)cc21 (centres unmarked) [Example 40, 1-Ethyl-6-fluoro-1,4-dihydro-7-[3-(4-methyl-2-thienyl)-1-piperazinyl]-4-oxo-3-quinolinecarboxylic acid]	0.5 (≈ 1.2 µM)	0.5 (≈ 1.2 µM)	0.5 (≈ 1.2 µM)	0.25 (≈ 0.602 µM)	0.5 (≈ 1.2 µM)	0.5 (≈ 1.2 µM)	0.5 (≈ 1.2 µM)	0.5 (≈ 1.2 µM)	8 (≈ 19.3 µM)	0.25 (≈ 0.602 µM)	≤ 0.12
CCn1cc(C(=O)O)c(=O)c2cc(F)c(N3CCN(C)C(COc4ccccc4)C3)cc21 (centres unmarked) [Example 11, 1-Ethyl-6-fluoro-1,4-dihydro-7-[4-methyl-3-(phenoxy-methyl)-1-piperazinyl]-4-oxo-3-quinolinecarboxylic acid]	8 (≈ 18.2 µM)	4 (≈ 9.1 µM)	4 (≈ 9.1 µM)	2 (≈ 4.55 µM)	4 (≈ 9.1 µM)	8 (≈ 18.2 µM)	4 (≈ 9.1 µM)	2 (≈ 4.55 µM)	64 (≈ 146 µM)	2 (≈ 4.55 µM)	1 (≈ 2.28 µM)
CCn1cc(C(=O)O)c(=O)c2cc(F)c(N3CCNC(CN(C)C)C3)cc21 (centres unmarked) [Example 2, 7-[3-[(Dimethylamino)methyl]-1-piperazinyl]-1-ethyl-6-fluoro-1,4-dihvdro-4-oxo-3-quinolinecarboxylic acid]	4 (≈ 10.6 µM)	1 (≈ 2.66 µM)	2 (≈ 5.31 µM)	2 (≈ 5.31 µM)	2 (≈ 5.31 µM)	4 (≈ 10.6 µM)	2 (≈ 5.31 µM)	2 (≈ 5.31 µM)	16 (≈ 42.5 µM)	2 (≈ 5.31 µM)	0.5 (≈ 1.33 µM)
CCn1cc(C(=O)O)c(=O)c2cc(F)c(N3CCN(C)C(c4ccc(C)s4)C3)cc21 (centres unmarked) [Example 38, 1-Ethyl-6-fluoro-1,4-dihydro-7-[4-methyl-3-(5-methyl-2-thienyl)-1-piperazinyl]-4-oxo-3-quinolinecarboxylic acid]	4 (≈ 9.31 µM)	8 (≈ 18.6 µM)	4 (≈ 9.31 µM)	4 (≈ 9.31 µM)	4 (≈ 9.31 µM)	8 (≈ 18.6 µM)	8 (≈ 18.6 µM)	4 (≈ 9.31 µM)	> 256	0.25 (≈ 0.582 µM)	0.25 (≈ 0.582 µM)
CCn1cc(C(=O)O)c(=O)c2cc(F)c(N3CCN(C)C(c4ccsc4)C3)cc21 (centres unmarked) [Example 35, 1Ethyl-6-fluoro-1,4-dihydro-7-[4-methyl-3-(3-thienyl)-1-piperazinyl]-4-oxo-3-quinolinecarboxylic acid]	4 (≈ 9.63 µM)	2 (≈ 4.81 µM)	2 (≈ 4.81 µM)	1 (≈ 2.41 µM)	2 (≈ 4.81 µM)	4 (≈ 9.63 µM)	2 (≈ 4.81 µM)	2 (≈ 4.81 µM)	32 (≈ 77 µM)	0.5 (≈ 1.2 µM)	≤ 0.12
CCn1cc(C(=O)O)c(=O)c2cc(F)c(N3CCNC(COc4ccccc4)C3)cc21 (centres unmarked) [Example 9, 1-Ethyl-6-fluoro-1,4-dihydro-4-oxo-7-[3-(phenoxy-methyl]-1-piperazinyl]-3-quinolinecarboxylic acid]	1 (≈ 2.35 µM)	0.25 (≈ 0.588 µM)	0.5 (≈ 1.18 µM)	0.5 (≈ 1.18 µM)	0.5 (≈ 1.18 µM)	0.5 (≈ 1.18 µM)	0.5 (≈ 1.18 µM)	0.5 (≈ 1.18 µM)	8 (≈ 18.8 µM)	0.5 (≈ 1.18 µM)	≤ 0.12
CCn1cc(C(=O)O)c(=O)c2cc(F)c(N3CCN(C)C(c4cccs4)C3)cc21 (centres unmarked) [Example 31, 1-Ethyl-6-fluoro-1,4-dihydro-7-[4-methyl-3-(2-thienyl)piperazinyl]-4-oxo-3-quinolinecarboxylic acid]	16 (≈ 38.5 µM)	4 (≈ 9.63 µM)	4 (≈ 9.63 µM)	4 (≈ 9.63 µM)	4 (≈ 9.63 µM)	8 (≈ 19.3 µM)	8 (≈ 19.3 µM)	8 (≈ 19.3 µM)	32 (≈ 77 µM)	1 (≈ 2.41 µM)	0.25 (≈ 0.602 µM)
CCn1cc(C(=O)O)c(=O)c2cc(F)c(N3CCNC(c4cccs4)C3)cc21 (centres unmarked) [Example 26, 1-Ethyl-6-fluoro-1,4-dihydro-4-oxo-7-[3-(2-thienyl)-1-piperazinyl]-3-auinolinecarboxylic acid]	2 (≈ 4.98 µM)	0.5 (≈ 1.25 µM)	1 (≈ 2.49 µM)	0.5 (≈ 1.25 µM)	1 (≈ 2.49 µM)	1 (≈ 2.49 µM)	0.5 (≈ 1.25 µM)	1 (≈ 2.49 µM)	16 (≈ 39.9 µM)	0.5 (≈ 1.25 µM)	0.25 (≈ 0.623 µM)
CCn1cc(C(=O)O)c(=O)c2cc(F)c(N3CCNC(c4ccc(Br)s4)C3)cc21 (centres unmarked) [Example 13, 7-[3-(5-Bromo-2-thienyl)-1-piperazinyl]-1-ethyl-6-fluoro-1,4-dihydro-4-oxo-3-quinolinecarboxylic acid]	> 256	32 (≈ 66.6 µM)	16 (≈ 33.3 µM)	16 (≈ 33.3 µM)	16 (≈ 33.3 µM)	64 (≈ 133 µM)	16 (≈ 33.3 µM)	16 (≈ 33.3 µM)	> 256	2 (≈ 4.16 µM)	0.5 (≈ 1.04 µM)
CCn1cc(C(=O)O)c(=O)c2cc(F)c(N3CCNC(COC)C3)cc21 (centres unmarked) [Example 7, 1-Ethyl-6-fluoro-1,4-dihydro-7-[3-(methoxymethyl)-1-piperazinyl]-4-oxo-3-quinolinecarboxylic acid]	0.5 (≈ 1.38 µM)	0.25 (≈ 0.688 µM)	0.5 (≈ 1.38 µM)	0.25 (≈ 0.688 µM)	0.25 (≈ 0.688 µM)	0.5 (≈ 1.38 µM)	0.25 (≈ 0.688 µM)	0.5 (≈ 1.38 µM)	8 (≈ 22 µM)	2 (≈ 5.5 µM)	0.5 (≈ 1.38 µM)
